The values below come from patent US20260231941A1, “HERBICIDAL COMPOSITIONS” (SYNGENTA CROP PROTECTION AG, priority 2023, published 2026).

Holding throughout (assay): Post-emergence efficacy, glasshouse, percentage damage to plant
Type in all cases: in vivo

For assay [1], the system named is Digitaria sanguinalis (DIGSA). The note with it: 14 days, Table B1. The source says: (§1) Seeds of a variety of test species are sown in standard soil in pots (Digitaria sanguinalis (DIGSA), Echinochloa crus-galli (ECHCG), Setaria faberi (SETFA), Stellaria media (STEME), Amaranthus retroflexus (AMARE), Chenopodium album (CHEAL), Abutilon theophrasti (ABUTH), Ipomoea hederacea (IPOHE), Phalaris minor (PHAMI), Eleusine indica (ELEIN), Sorghum bicolor (SORVU), Euphorbia heterophylla (EPHHL), Fallopia convolvulus (POLCO)), and cultivated under controlled conditions in a glasshouse (at 24/16° C., day/night; 14 hours light; 65% humidity), the plants are sprayed with an aqueous spray solution derived from the dissolution of Component (A) in acetone and IF50 (11.12% Emulsogen EL360 TM+44.44% N-methylpyrrolidone+44.44% Dowanol DPM glycol ether) and Component (B) which was then diluted to the required concentration using 0.2% Genapol XO80 (CAS No. 9043-30-5) in water as the diluent. Test compounds or compositions are applied at the rates stated. The test plants are then grown in a glasshouse under controlled conditions in a glasshouse (at […], day/night; 14 hours light; 65% humidity) and watered twice daily. After 14 days, the test is evaluated for the percentage damage caused to the plant (100=total damage to plant; 0=no damage to plant), and the result are shown below in table B1 to B18.

The test system of assay [2] is Euphorbia heterophylla (EPHHL). The note with it: 14 days, Table B11.
Source text: as §1

The test system of assay [3] is Fallopia convolvulus (POLCO). The settings on record: 14 days.
Source text: as §1

Assay [4] concerns Ipomoea hederacea (IPOHE). The settings on record: 14 days.
Source text: as §1

The subject of the next assay is Stellaria media (STEME). The note with it: 14 days.
Source text: as §1

The test system of assay [5] is Chenopodium album (CHEAL). The note with it: 14 days, Table B6.
Source text: as §1

For a further assay, the system named is Sorghum bicolor (SORVU). The settings on record: 14 days, Table B10.
Source text: as §1

Assay [6] relates to Echinochloa crus-galli (ECHCG). The note with it: growth stage 4 true leaves, 14 days.
Source text: as §1

In assay [7] the test system is Amaranthus retroflexus (AMARE). The settings on record: 14 days.
Source text: as §1

Another assay concerns Phalaris minor (PHAMI). The settings on record: 14 days, Table B9.
Source text: as §1

Assay [8] deals with Abutilon theophrasti (ABUTH). The note with it: 14 days, Table B7.
Source text: as §1

A further assay has as its system Setaria faberi (SETFA). The note with it: 14 days, Table B3.
Source text: as §1

For another assay, the system named is Eleusine indica (ELEIN). The note with it: 14 days, Table B17.
Source text: as §1

Setting [9] is: Compound (Ia) 0.46875 g/Ha alone.
The mark [10] stands for this setting: Compound (Ia) 0.9375 g/Ha alone.

As for `CP(=O)(O)CCC(N)C(=O)O` (stereo not drawn) [Glufosinate, glufosinate], the “Observed Activity” value in [1] (Glufosinate 7.5 g/Ha alone) is 5.0%; in [2] (Glufosinate 3.75 g/Ha alone), 12.5%; in assay [2] (Glufosinate 7.5 g/Ha alone) it was 12.5%; in assay [3] (Glufosinate 7.5 g/Ha alone, Table B12) it was 7.5%; in assay [4] (Glufosinate 7.5 g/Ha alone, Table B8), 2.5%; in [4] (Glufosinate 30 g/Ha alone, Table B8), 7.5%. Also, the “Observed Activity” value is recorded as 0.0% with Stellaria media (STEME) (Glufosinate 7.5 g/Ha alone, Table B4); 2.5% with Stellaria media (STEME) (Glufosinate 30 g/Ha alone, Table B4); 0.0% in [5] (Glufosinate 15 g/Ha alone); 24.0% in the assay on Sorghum bicolor (SORVU) (Glufosinate 30 g/Ha alone); 47.5% in assay [6] (Glufosinate 30 g/Ha alone, Table B2); 67.5% in assay [6] (Glufosinate 60 g/Ha alone, Table B2). For the same compound, the “Observed Activity” value came out at 91.5% in assay [6] (Glufosinate 120 g/Ha alone, Table B2); 0.0% in [7] (Glufosinate 7.5 g/Ha alone, Table B5); 0.0% in assay [7] (Glufosinate 15 g/Ha alone, Table B5); 2.5% in assay [7] (Glufosinate 30 g/Ha alone, Table B5); 2.5% with Phalaris minor (PHAMI) (Glufosinate 1.875 g/Ha alone); 5.0% with Phalaris minor (PHAMI) (Glufosinate 3.75 g/Ha alone). The “Observed Activity” value is 12.5% in the assay on Phalaris minor (PHAMI) (Glufosinate 7.5 g/Ha alone); 7.5% in the assay on Phalaris minor (PHAMI) (Glufosinate 15 g/Ha alone); 12.5% in the assay on Phalaris minor (PHAMI) (Glufosinate 30 g/Ha alone); 7.5% in assay [8] (Glufosinate 7.5 g/Ha alone); 10.0% in assay [8] (Glufosinate 15 g/Ha alone); 15.0% in the assay on Setaria faberi (SETFA) (Glufosinate 30 g/Ha alone).
With `CP(=O)(O)CC[C@H](N)C(=O)O` [L-Glufosinate, L-glufosinate], the “Observed Activity” value turned out to be 0.0% with Eleusine indica (ELEIN) (L-Glufosinate 1.875 g/Ha alone); 20.0% with Eleusine indica (ELEIN) (L-Glufosinate 30 g/Ha alone); 10.0% in assay [3] (L-Glufosinate 3.75 g/Ha alone, Table B18); 25.0% in assay [3] (L-Glufosinate 7.5 g/Ha alone, Table B18); 5.0% in [4] (L-Glufosinate 7.5 g/Ha alone, Table B16); 15.0% in [4] (L-Glufosinate 15 g/Ha alone, Table B16). Also, the “Observed Activity” value with Stellaria media (STEME) (L-Glufosinate 120 g/Ha alone, Table B14) turned out to be 32.5%; in assay [6] (L-Glufosinate 30 g/Ha alone, Table B13) it was 5.0%; in assay [6] (L-Glufosinate 60 g/Ha alone, Table B13) it was 22.5%; in [6] (L-Glufosinate 120 g/Ha alone, Table B13), 32.5%; in [7] (L-Glufosinate 7.5 g/Ha alone, Table B15), 5.0%; in assay [7] (L-Glufosinate 15 g/Ha alone, Table B15) it was 7.5%.
For `CCOC(=O)C1(C)CC(c2cc(-n3c(=O)cc(C(F)(F)F)n(C)c3=O)c(F)cc2Cl)=NO1` (stereo not drawn) [Compound (Ia)], the “Observed Activity” value is 37.5% in the assay with Eleusine indica (ELEIN) (setting [9]); 89.8% with Eleusine indica (ELEIN) (Compound (Ia) 7.5 g/Ha alone); 23.8% in [1] (setting [10]); 33.3% in assay [2] (setting [10]); 45.3% in [2] (Compound (Ia) 1.875 g/Ha alone); 82.0% in assay [3] (Compound (Ia) 0.9375 g/Ha alone, Table B18). In addition, the “Observed Activity” value was found to be 79.8% in [3] (Compound (Ia) 1.875 g/Ha alone, Table B12); 79.8% in assay [3] (Compound (Ia) 1.875 g/Ha alone, Table B18); 53.8% in [4] (Compound (Ia) 0.46875 g/Ha alone, Table B8); 53.8% in assay [4] (Compound (Ia) 0.46875 g/Ha alone, Table B16); 83.8% in assay [4] (Compound (Ia) 1.875 g/Ha alone, Table B8); 83.8% in assay [4] (Compound (Ia) 1.875 g/Ha alone, Table B16). Also, the “Observed Activity” value in the assay on Stellaria media (STEME) (Compound (Ia) 0.9375 g/Ha alone, Table B4) turned out to be 27.5%; with Stellaria media (STEME) (Compound (Ia) 1.875 g/Ha alone, Table B4) it was 43.8%; with Stellaria media (STEME) (Compound (Ia) 7.5 g/Ha alone, Table B14), 67.5%; in assay [5] (Compound (Ia) 1.875 g/Ha alone), 77.5%; in the assay on Sorghum bicolor (SORVU) (Compound (Ia) 7.5 g/Ha alone) it was 72.3%; in assay [6] (Compound (Ia) 3.75 g/Ha alone, Table B2), 52.5%. Moreover, the “Observed Activity” value came out at 31.3% in assay [6] (Compound (Ia) 3.75 g/Ha alone, Table B13); 68.8% in [6] (Compound (Ia) 7.5 g/Ha alone, Table B2); 47.5% in assay [6] (Compound (Ia) 7.5 g/Ha alone, Table B13); 51.3% in [7] (Compound (Ia) 0.9375 g/Ha alone, Table B5); 51.3% in assay [7] (Compound (Ia) 0.9375 g/Ha alone, Table B15); 73.8% in assay [7] (Compound (Ia) 1.875 g/Ha alone, Table B5). Moreover, the “Observed Activity” value in the assay with Phalaris minor (PHAMI) (setting [9]) is reported as 7.5%; with Phalaris minor (PHAMI) (setting [10]), 11.3%; with Phalaris minor (PHAMI) (Compound (Ia) 1.875 g/Ha alone), 25.8%; with Phalaris minor (PHAMI) (Compound (Ia) 3.75 g/Ha alone), 57.0%; in the assay with Phalaris minor (PHAMI) (Compound (Ia) 7.5 g/Ha alone), 72.8%; in [8] (setting [9]), 25.0%. Also, the entries for the “Observed Activity” value (in [8] (setting [10]); in assay [8] (Compound (Ia) 1.875 g/Ha alone); in the assay with Setaria faberi (SETFA) (Compound (Ia) 3.75 g/Ha alone)) were 67.5%, 88.8% and 73.8%, respectively.
